The record followed here is patent publication US7312248B2, “Control of parasites in animals by the use of novel trifluoromethanesulfonanilide oxime ether derivatives” (Schering-Plough Animal Health Corporation, priority 2004, dated 2007).

Usually mortality stands for the share of the test organisms that died.

Read-outs that look alike come from different tables or passages of the source.

The subject of data set [1] is cat flea (Ctenocephalides felis). The experiment in a line: whole plant or invertebrate. The class given is in vivo. Particulars: Ctenocephalides felis. In a few lines: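 Single-dose screen at 1.26 μg/cm^2: acetone solution dried for 24 h on a Coatasil-treated 159 mm^2 flask base, then 15 adult cat fleas aged 3-7 days per flask, four or more replicates, acetone control. Percent dead, meaning not moving or unable to right themselves, recorded after 8, 24 and/or 48 h at 25 °C and 75% RH.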

Data set [2] relates to Brown Dog Tick (Rhipicephalus sanguineus). The experiment in a line: Rapid screening protocol for topical application on brown dog ticks. To be noted: for R. sanguineus Mortality (%) 48 h: Laboratory 2 F data; for mortality at 5 µg/tick: Rhipicephalus sanguineus, read-out: R. sanguineus Mortality (%) 24 h; for mortality at 5 µg/tick / Rhipicephalus sanguineus Mortality (%) 24 h: topical, 24 h; for Rhipicephalus sanguineus Mortality (%) 24 h: 10 μg of active per tick in 1 μL acetone, adult ticks, Laboratory 1 E data. Type of data set: in vivo. The protocol:
d) Rapid Screening Protocol for Topical Application on Brown Dog Ticks (Rhipicephalus sanguineus)
The aim of the test was to determine the presence of significant acaricidal activity in sample compounds or formulations when applied topically on brown dog ticks. A tick was defined as dead if it gave no apparent response when touched lightly and observed for 1 minute. […] Both permethrin and fipronil were employed as reference compounds. The insect species tested was the Brown Dog Tick (Rhipicephalus sanguineus). Mixed sex adult ticks were used for tests. The strain used was cultured by von Berky Veterinary Services, Woody Point, QLD, AU and supplied as unfed adult ticks (mixed sex). Ticks were maintained in controlled conditions (temp. 18°+2° C., humidity 75±5% RH).
Temperature was maintained at 25±1° C. and the humidity was ambient. […] Ticks were each treated on the abdomen with 1 μL of a single dose level of test sample in acetone; ten ticks were treated with solvent only (acetone) in each test. Tests were replicated 4 times (total of 40 ticks treated). […]

[3] abbreviates: 8 h, read-out: C. felis Mortality (%) 8 h, 8 h, Laboratory 2 B data.
The mark [4] stands for this setting: 24 h, read-out: C. felis Mortality (%) 24 h, 24 h, Laboratory 2 B data.
Where [5] appears, read: 8 h, read-out: Ctenocephalides felis Mortality (%) 8 h.
Where [6] appears, read: 24 h, read-out: Ctenocephalides felis Mortality (%) 24 h.
Where [7] appears, read: 48 h, read-out: Ctenocephalides felis Mortality (%) 48 h.

In the case of `C/C(=N\Oc1ccc(F)cc1)c1ccc(C(F)(F)F)cc1NS(=O)(=O)C(F)(F)F` [Compound 200, N-{2-[1-(4-fluorophenoxyimino)ethyl]-5-trifluoromethylphenyl}trifluoromethanesulfonamide], the values for the mortality at 1.26 µg/cm2, 1.26 µg/cm2 in data set [1] (setting [3]) and in data set [1] (setting [4]) were 93% and 100%, respectively. The “R. sanguineus Mortality (%) 48 h” value in data set [2] worked out at 17%.

Take `CC/C(=N\Oc1ccc(Cl)cc1)c1ccc(C(F)(F)F)cc1NS(=O)(=O)C(F)(F)F` [Compound 201]: the mortality at 1.26 µg/cm2, 1.26 µg/cm2 worked out at 85% in data set [1] (setting [3]) and 100% in data set [1] (setting [4]). The “R. sanguineus Mortality (%) 48 h” value in data set [2] turned out to be 22%.

Consider `C/C(=N\OCC1CCCO1)c1cc(Cl)ccc1NS(=O)(=O)C(F)(F)F` (stereo not drawn) [Compound 203], for which the mortality at 1.26 µg/cm2, 1.26 µg/cm2 in data set [1] (setting [3]) and in data set [1] (setting [4]) was 98% in each case. Besides, in data set [2], the “R. sanguineus Mortality (%) 48 h” value worked out at 95%.

For `CC/C(=N\OCc1ccccn1)c1cc(Cl)ccc1NS(=O)(=O)C(F)(F)F` [Compound 204], the mortality at 1.26 µg/cm2, 1.26 µg/cm2 in data set [1] (setting [3]) and in data set [1] (setting [4]) was 100% in each case. Further, the “R. sanguineus Mortality (%) 48 h” value in data set [2] is given as 87%.

Regarding `CC/C(=N\OCc1cccnc1)c1cc(Cl)ccc1NS(=O)(=O)C(F)(F)F` [Compound 206], the values for the mortality at 1.26 µg/cm2, 1.26 µg/cm2 in data set [1] (setting [3]) and in data set [1] (setting [4]) were 97% and 100%, respectively. Further, in data set [2], the “R. sanguineus Mortality (%) 48 h” value is 52%.

With `O=S(=O)(Nc1ccc(Cl)cc1/C(=N/OCC1CCCCC1)C1CCCCC1)C(F)(F)F` [Compound 209], the values for the mortality at 1.26 µg/cm2, 1.26 µg/cm2 in data set [1] (setting [3]) and in data set [1] (setting [4]) were 38% and 93%, respectively. In addition, in data set [2], the “R. sanguineus Mortality (%) 48 h” value amounted to 22%.

Consider `O=S(=O)(Nc1ccc(Cl)cc1/C(=N/OC1CCCC1)C1CCCCC1)C(F)(F)F` [Compound 211], for which the mortality at 1.26 µg/cm2, 1.26 µg/cm2 in data set [1] (setting [3]) is 46%; in data set [1] (setting [4]), 100%. For the same compound, the “R. sanguineus Mortality (%) 48 h” value in data set [2] is 90%.

Turning to `O=S(=O)(Nc1ccc(Cl)cc1/C(=N/OC1CCCCC1)C1CCCCC1)C(F)(F)F` [Compound 212], the mortality at 1.26 µg/cm2, 1.26 µg/cm2 in data set [1] (setting [3]) amounted to 24%; in data set [1] (setting [4]), 100%. For the same compound, the “R. sanguineus Mortality (%) 48 h” value in data set [2] is 57%.

In the case of `CCO/N=C(/c1cc(Cl)ccc1NS(=O)(=O)C(F)(F)F)C1CCCCC1` [Compound 213], the figures for the mortality at 1.26 µg/cm2, 1.26 µg/cm2 in data set [1] (setting [3]) and in data set [1] (setting [4]) were 53% and 100%, respectively. Moreover, in data set [2], the “R. sanguineus Mortality (%) 48 h” value was 90%.

Turning to `CC/C(=N\Oc1ccc(F)cc1)c1ccc(C(F)(F)F)cc1NS(=O)(=O)C(F)(F)F` [Compound 214], the mortality at 1.26 µg/cm2, 1.26 µg/cm2 turned out to be 98% in data set [1] (setting [3]) and 100% in data set [1] (setting [4]). Besides, the “R. sanguineus Mortality (%) 48 h” value in data set [2] is listed as 20%.

`CC(C)/C(=N\Oc1ccc(F)cc1)c1cc(Cl)ccc1NS(=O)(=O)C(F)(F)F` [Compound 216]: the mortality at 1.26 µg/cm2, 1.26 µg/cm2 in data set [1] (setting [3]) came out at 97%; in data set [1] (setting [4]), 100%. Besides, the “R. sanguineus Mortality (%) 48 h” value in data set [2] turned out to be 72%.

Regarding `C/C(=N\OCC1CCCCC1)c1ccc(C(F)(F)F)cc1NS(=O)(=O)C(F)(F)F` [Compound 217], the mortality at 1.26 µg/cm2, 1.26 µg/cm2 came out at 46% in data set [1] (setting [3]) and 90% in data set [1] (setting [4]). In addition, the “R. sanguineus Mortality (%) 48 h” value in data set [2] is on record as 30%.

As to `C/C(=N\OCc1ccc(Cl)cc1)c1ccc(C(F)(F)F)cc1NS(=O)(=O)C(F)(F)F` [Compound 218], the mortality at 1.26 µg/cm2, 1.26 µg/cm2 in data set [1] (setting [3]) turned out to be 90%; in data set [1] (setting [4]), 100%. Besides, the “R. sanguineus Mortality (%) 48 h” value in data set [2] stood at 75%.

In the case of `C/C(=N\OCc1ccc(C(F)(F)F)cc1)c1ccc(C(F)(F)F)cc1NS(=O)(=O)C(F)(F)F` [Compound 219], the mortality at 1.26 µg/cm2, 1.26 µg/cm2 in data set [1] (setting [3]) was determined as 69%; in data set [1] (setting [4]) it was 100%. Further, the “R. sanguineus Mortality (%) 48 h” value in data set [2] was found to be 60%.

As to `CC/C(=N\OCc1ccc(Cl)cc1)c1ccc(C(F)(F)F)cc1NS(=O)(=O)C(F)(F)F` [Compound 220], the mortality at 1.26 µg/cm2, 1.26 µg/cm2 came to 54% in data set [1] (setting [3]) and 100% in data set [1] (setting [4]). Moreover, in data set [2], the “R. sanguineus Mortality (%) 48 h” value was found to be 62%.

For the compound `CC/C(=N\OCc1ccc(C(F)(F)F)cc1)c1ccc(C(F)(F)F)cc1NS(=O)(=O)C(F)(F)F` [Compound 221], the mortality at 1.26 µg/cm2, 1.26 µg/cm2 in data set [1] (setting [3]) came to 44%; in data set [1] (setting [4]) it was 100%. For the same compound, in data set [2], the “R. sanguineus Mortality (%) 48 h” value was found to be 67%.

In the case of `CC/C(=N\OCC1CCCCC1)c1ccc(C(F)(F)F)cc1NS(=O)(=O)C(F)(F)F` [Compound 222], the mortality at 1.26 µg/cm2, 1.26 µg/cm2 came out at 27% in data set [1] (setting [3]) and 96% in data set [1] (setting [4]). Also, in data set [2], the “R. sanguineus Mortality (%) 48 h” value amounted to 32%.

`CCC(O/N=C(\C)c1cc(Cl)ccc1NS(=O)(=O)C(F)(F)F)c1ccccc1` (stereo not drawn) [Compound 255]: the mortality at 1.26 µg/cm2, 1.26 µg/cm2 came to 1% in data set [1] (setting [3]) and 100% in data set [1] (setting [4]). Also, the mortality at 5 µg/tick in data set [2] is 22%.

With `CC/C(=N\OC(C)c1ccc(Cl)cc1)c1cc(Cl)ccc1NS(=O)(=O)C(F)(F)F` (stereo not drawn) [Compound 257], the mortality at 1.26 µg/cm2, 1.26 µg/cm2 was 5% in data set [1] (setting [3]) and 96% in data set [1] (setting [4]). Further, the mortality at 5 µg/tick in data set [2] was 40%.

In the case of `CCCCc1cc(-c2cc(Cl)ccc2NS(=O)(=O)C(F)(F)F)no1` [Compound 291], the values for the mortality at 1.26 µg/cm2 in data set [1] (setting [5]) and in data set [1] (setting [6]) were 91% and 100%, respectively. Besides, in data set [2], the “Rhipicephalus sanguineus Mortality (%) 24 h” value was determined as 67%.

Consider `O=S(=O)(Nc1ccc(Cl)cc1-c1ccon1)C(F)(F)F` [Compound 293], for which the mortality at 1.26 µg/cm2 in data set [1] (setting [5]) came out at 60%; in data set [1] (setting [6]) it was 100%. Further, the “Rhipicephalus sanguineus Mortality (%) 24 h” value in data set [2] is listed as 80%.

Consider `CCOCN(c1ccc(Cl)cc1/C(CC)=N/OCc1ccc(Cl)cc1)S(=O)(=O)C(F)(F)F` [Compound 302], for which the mortality at 1.26 µg/cm2 in data set [1] (setting [6]) is 3%; in data set [1] (setting [7]), 82%. Moreover, the “Rhipicephalus sanguineus Mortality (%) 24 h” value in data set [2] is listed as 5%.

For `CC/C(=N\OCc1ccc(Cl)cc1)c1cc(Cl)ccc1N(COC(=O)C(C)(C)C)S(=O)(=O)C(F)(F)F` [Compound 303], the mortality at 1.26 µg/cm2 in data set [1] (setting [6]) worked out at 0%; in data set [1] (setting [7]), 76%. The “Rhipicephalus sanguineus Mortality (%) 24 h” value in data set [2] is given as 2%.

For `CC/C(=N\OCc1ccc(Cl)cc1)c1cc(Cl)ccc1N(C(C)=O)S(=O)(=O)C(F)(F)F` [Compound 307, N-acetyl-N-{4-chloro-2-[1-(4-chlorobenzyloxyimino)propyl]phenyl}trifluoromethanesulfonamide], the mortality at 1.26 µg/cm2 in data set [1] (setting [6]) is 10%; in data set [1] (setting [7]), 98%. Moreover, the “Rhipicephalus sanguineus Mortality (%) 24 h” value in data set [2] stood at 5%.

On to `CC(=O)N(c1ccc(Cl)cc1/C(C)=N/Oc1ccc(F)cc1)S(=O)(=O)C(F)(F)F` [Compound 308], for which the mortality at 1.26 µg/cm2 stood at 29% in data set [1] (setting [5]) and 100% in data set [1] (setting [6]). Moreover, in data set [2], the “Rhipicephalus sanguineus Mortality (%) 24 h” value was found to be 7%.

With `CCOC(=O)N(c1ccc(Cl)cc1/C(C)=N/Oc1ccc(F)cc1)S(=O)(=O)C(F)(F)F` [Compound 310, N-carbonylethoxy-N-{4-chloro-2-[1-(4-fluorophenoxyimino)ethyl]phenyl}trifluoromethanesulfonamide], the mortality at 1.26 µg/cm2 in data set [1] (8 h, single concentration 1.26 μg/cm^2 on treated glass, adult fleas, Laboratory 2 B data, read-out: Ctenocephalides felis Mortality (%) 8 h) turned out to be 56%; in data set [1] (24 h, single concentration 1.26 μg/cm^2 on treated glass, adult fleas, Laboratory 2 B data, read-out: Ctenocephalides felis Mortality (%) 24 h) it was 100%. Besides, the “Rhipicephalus sanguineus Mortality (%) 24 h” value in data set [2] was 52%.
